In patent publication US20040176431A1, “Antiproliferative 2-(sulfo-phenyl)-aminothiazole derivatives and pharmaceutical compositions, and methods for their use” (Pfizer, Inc., priority 2003, published 2004):

Assays:
CDK1 (cdc2)/cyclin B = molecular target: T1, CDK1 (cdc2)/cyclin B (Homo sapiens, UniProt P06493); test: Inhibition of CDK1(cdc2)/Cyclin B histone H1 kinase activity; format: biochemical; conditions: apparent Ki, histone H1 substrate
T1 construct: purchased New England Biolabs (Beverly Mass.)
Procedure: Cyclin-dependent kinase activity was measured by quantifying the enzyme-catalyzed, time-dependent incorporation of radioactive phosphate from [^32P]ATP or [^33P]ATP into a protein substrate. Unless noted otherwise, assays were performed in 96-well plates in a total volume of 50 μL, in the presence of 10 mM HEPES (N-[2-hydroxyethyl]piperazine-N′-[2-ethanesulfonic acid]) (pH 7.4), 10 mM MgCl2, 25 μM adenosine triphosphate (ATP), 1 mg/mL ovalbumin, 5 μg/mL leupeptin, 1 mM dithiothreitol, 10 mM β-glycerophosphate, 0.1 mM sodium vanadate, 1 mM sodium fluoride, 2.5 mM ethylene glycol-bis(β-aminoethyl ether)-N,N,N′N′-tetraacetic acid (EGTA), 2% (v/v) dimethylsulfoxide, and 0.03-0.4 μCi [^32/33P]ATP per reaction. Reactions were initiated with enzyme, incubated at 30° C., and terminated after 20 minutes by the addition of ethylenediaminetetraacetic acid (EDTA) to 250 mM. The phosphorylated substrate was then captured on a nitrocellulose or phosphocellulose membrane using a 96-well filtration manifold, and unincorporated radioactivity was removed by repeated washing with 0.85% phosphoric acid. Radioactivity was quantified by exposing the dried membranes to a phosphorimager.
Inhibition was measured relative to control wells that contained all reaction components including 2% (v/v) DMSO but no compound, after subtraction of background radioactivity measured in the absence of enzyme. Apparent Ki values of discrete compounds were measured by assaying enzyme activity in the presence of different inhibitor compound concentrations and subtracting the background radioactivity measured in the absence of enzyme. The kinetic parameters (kcat, Km for ATP) were measured for each enzyme under the usual assay conditions by determining the dependence of initial rates on ATP concentration. […]
The complex of human CDK1 (cdc2) and cyclin B was purchased from New England Biolabs (Beverly Mass.). […] Phosphorylated histone substrate was captured by microfiltration on a phosphocellulose P81 membrane and quantified using a phosphorimager as described above.

CDK4/cyclin D3 = molecular target: T2, CDK4/cyclin D3 (Homo sapiens, UniProt P11802); test: Inhibition of CDK4/Cyclin D retinoblastoma kinase activity; format: biochemical; conditions: apparent Ki, Rb fragment substrate
T2 construct: made in house; host or cells: insect cells (baculovirus co-infection)
How it was run: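 Human CDK4 with truncated cyclin D3 (1-264) from baculovirus-infected insect cells, 5 nM, phosphorylating His-tagged Rb fragment (386-928) with 25 μM [32P/33P]ATP in pH 7.4 HEPES/MgCl2, 2% DMSO, 30° C., 20 min (60 min for tight binders). Filter capture, phosphorimager; apparent Ki from competitive or tight-binding competitive fits.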

HCT-116 cells = test: Inhibition of cell growth (MTT tetrazolium salt assay); format: cell-based; conditions: Homo sapiens; for IC50: read-out: HCT116 IC50; for IC90: read-out: HCT116 IC90
How it was run: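 HCT-116 cells in McCoy's 5A were pre-incubated 4 h, then exposed to compounds in 0.5% DMSO for 4–6 days at 37 °C. MTT at 0.2 mg/mL final was added for 4 h and DMSO-solubilized formazan read at 540 nm. Values are relative to 0.5% DMSO-only controls.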

CDK2/cyclin A = molecular target: T3, CDK2/cyclin A (Homo sapiens, UniProt P24941); test: Inhibition of CDK2/Cyclin A retinoblastoma kinase activity; format: biochemical; conditions: apparent Ki, Rb fragment substrate
T3 construct: made in house; host or cells: CDK2: insect cells (baculovirus); cyclin A: E. coli, then limited proteolysis
How it was run: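 Radiometric [32/33P]ATP transfer to an Rb fragment by CDK2 (insect cell, 10 or 19 nM) complexed with proteolyzed cyclin A; pH 7.4 HEPES, 25 μM ATP, 2% DMSO, 30 °C, 60 or 75 min, filter capture. Apparent Ki from competitive or tight-binding inhibition fits.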

T2 sequence (P11802 whole entry, the tested form may be a part): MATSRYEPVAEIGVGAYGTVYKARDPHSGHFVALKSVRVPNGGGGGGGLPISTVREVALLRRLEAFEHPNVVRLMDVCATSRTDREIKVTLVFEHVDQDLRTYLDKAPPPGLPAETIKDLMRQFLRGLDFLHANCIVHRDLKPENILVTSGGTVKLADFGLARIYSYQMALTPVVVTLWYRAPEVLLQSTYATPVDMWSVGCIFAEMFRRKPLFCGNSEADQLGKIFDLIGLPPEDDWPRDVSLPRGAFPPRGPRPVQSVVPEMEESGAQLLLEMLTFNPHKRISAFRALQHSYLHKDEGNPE
T2 sequence (P30281 1-264 partner limits assumed): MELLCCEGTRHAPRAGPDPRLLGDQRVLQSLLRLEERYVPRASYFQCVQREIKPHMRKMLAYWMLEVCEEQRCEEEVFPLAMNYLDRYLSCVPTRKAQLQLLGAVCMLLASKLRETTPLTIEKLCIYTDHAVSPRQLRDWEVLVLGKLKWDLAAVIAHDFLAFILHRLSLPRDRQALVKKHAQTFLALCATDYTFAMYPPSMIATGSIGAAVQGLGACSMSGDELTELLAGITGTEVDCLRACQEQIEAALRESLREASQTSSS
T1 sequence (P06493 whole entry): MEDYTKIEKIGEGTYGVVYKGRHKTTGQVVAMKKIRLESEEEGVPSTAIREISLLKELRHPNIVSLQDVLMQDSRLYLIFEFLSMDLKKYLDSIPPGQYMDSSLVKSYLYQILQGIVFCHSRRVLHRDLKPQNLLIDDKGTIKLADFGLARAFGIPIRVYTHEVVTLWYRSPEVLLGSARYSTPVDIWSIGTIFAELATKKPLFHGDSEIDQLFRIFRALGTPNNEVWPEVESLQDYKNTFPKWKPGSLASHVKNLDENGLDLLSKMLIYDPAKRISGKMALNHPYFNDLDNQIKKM
T1 sequence (P14635 whole entry partner): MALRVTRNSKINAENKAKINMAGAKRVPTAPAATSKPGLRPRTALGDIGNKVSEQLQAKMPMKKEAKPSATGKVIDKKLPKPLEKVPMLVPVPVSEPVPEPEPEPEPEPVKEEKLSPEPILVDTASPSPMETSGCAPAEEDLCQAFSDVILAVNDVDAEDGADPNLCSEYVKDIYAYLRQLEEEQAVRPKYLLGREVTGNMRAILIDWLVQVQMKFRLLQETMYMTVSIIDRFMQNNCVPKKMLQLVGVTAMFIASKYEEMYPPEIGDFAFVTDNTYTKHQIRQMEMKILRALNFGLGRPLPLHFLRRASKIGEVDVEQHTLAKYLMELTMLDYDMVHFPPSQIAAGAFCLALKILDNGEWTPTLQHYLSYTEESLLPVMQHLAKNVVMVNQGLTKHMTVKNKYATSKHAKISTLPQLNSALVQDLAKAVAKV

SMILES	Ki (CDK1 (cdc2)/cyclin B)	Ki (CDK4/cyclin D3)	IC50 (HCT-116 cells)	IC90 (HCT-116 cells)	Ki (CDK2/cyclin A)
Cc1ccc(CNS(=O)(=O)c2ccc(Nc3nc(N)c(C(=O)c4c(F)cccc4F)s3)cc2)o1 [Example A(11), 4-[4-Amino-5-(2,6-difluoro-benzoyl)-thiazol-2-ylamino]-N-(5-methyl-furan-2-ylmethyl)-benzenesulfonamide]	0.0039 µM	0.028 µM	0.043 µM	0.14 µM	< 0.005 µM
Nc1nc(Nc2ccc(S(=O)(=O)NCCc3ccc(F)cc3)cc2)sc1C(=O)c1c(F)cccc1F [Example A(20), 4-[4-Amino-5-(2,6-difluoro-benzoyl)-thiazol-2-ylamino]-N-[2-(4-fluoro-phenyl)-ethyl]-benzenesulfonamide]		0.014 µM	0.9 µM	2.6 µM	< 0.005 µM
Cc1cc(F)c(C(=O)c2sc(Nc3ccc(S(=O)(=O)NCCOC(C)C)cc3)nc2N)c(F)c1 [Example CC(1), 4-[4-Amino-5-(2,6-difluoro-4-methyl-benzoyl)-thiazol-2-ylamino]-N-(2-isopropoxy-ethyl)-benzenesulfonamide]		0.0097 µM	0.28 µM	0.48 µM	0.00074 µM
CS(=O)(=O)c1ccc(Nc2nc(N)c(C(=O)c3c(F)cccc3F)s2)cc1 [Q(1), 1-[4-Amino-2-(4-methanesulfonyl-phenylamino)-thiazol-5-yl]-1-(2,6-difluoro-phenyl)-methanone]		0.073 µM	1.3 µM	3.8 µM	0.21 µM
CSc1ccc(Nc2nc(N)c(C(=O)c3c(Cl)cccc3Cl)s2)cc1 [R(2), 4-Amino-5-(2,6-dichlorobenzoyl)-2-(4-methylthio-phenylamino)-thiazole]		0.03 µM	12 µM	> 25 µM	0.25 µM
Nc1nc(Nc2ccc(SCCO)cc2)sc1C(=O)c1c(Cl)cccc1Cl [Y(2), 4-Amino-5-(2,6-dichlorobenzoyl)-2-[4-(2-hydroxy-ethylthio)-phenylamino]-thiazole]		0.0076 µM	3.9 µM	13 µM	0.14 µM
NC(=O)C[S+]([O-])c1ccc(Nc2nc(N)c(C(=O)c3c(Cl)cccc3Cl)s2)cc1 (centres unmarked) [Z(2), 2-(4-{4-Amino-5-(2,6-dichlorobenzoyl)-thiazol-2-ylamino}-benzenesulfinyl)-acetamide]		0.015 µM	18 µM	> 25 µM	0.062 µM
Nc1nc(Nc2ccc([S+]([O-])CCO)cc2)sc1C(=O)c1c(Cl)cccc1Cl (centres unmarked) [Z(3), 4-Amino-5-(2,6-dichlorobenzoyl)-2-[4-(2-hydroxy-ethanesulfinyl)-phenylamino]-thiazole]		0.03 µM	6.8 µM	16 µM	0.17 µM
C[S+]([O-])c1ccc(Nc2nc(N)c(C(=O)c3c(Cl)cccc3Cl)s2)cc1 (centres unmarked) [Z(4), 4-Amino-5-(2,6-dichlorobenzoyl)-2-(4-methanesulfinyl-phenylamino)-thiazole]	0.12 µM	0.038 µM	4 µM	12 µM	0.303 µM
NC(=O)C[S+]([O-])c1cccc(Nc2nc(N)c(C(=O)c3c(Cl)cccc3Cl)s2)c1 (centres unmarked) [Z(5), 2-{3-[4-Amino-5-(2,6-dichloro-benzoyl)-thiazol-2-ylamino]-benzenesulfinyl}-acetamide]		0.23 µM	> 25 µM	> 25 µM	0.33 µM

More lines, now with the values ahead:

Ki (CDK1 (cdc2)/cyclin B)	Ki (CDK4/cyclin D3)	IC50 (HCT-116 cells)	IC90 (HCT-116 cells)	Ki (CDK2/cyclin A)	SMILES
0.093 µM	0.042 µM	4.5 µM	18 µM	0.138 µM	CS(=O)(=O)c1ccc(Nc2nc(N)c(C(=O)c3c(Cl)cccc3Cl)s2)cc1 [AA(2), 4-Amino-5-(2,6-dichlorobenzoyl)-2-(4-methanesulfonyl-phenylamino)-thiazole]
	0.0068 µM	1.8 µM	4.4 µM	0.014 µM	CN(C)CCCNS(=O)(=O)c1ccc(Nc2nc(N)c(C(=O)c3c(F)cccc3F)s2)cc1 [Example A(21), 4-[4-Amino-5-(2,6-difluoro-benzoyl)-thiazol-2-ylamino]-N-(3-dimethylamino-propyl)-benzenesulfonamide]
	0.011 µM	2.3 µM	6 µM	0.066 µM	NC(=O)CSc1ccc(Nc2nc(N)c(C(=O)c3c(Cl)cccc3Cl)s2)cc1 [Y(1), 2-{4-[4-Amino-5-(2,6-dichloro-benzoyl)-thiazol-2-ylamino]-phenylthio}-acetamide]
	0.033 µM	11 µM	> 25 µM	0.092 µM	NC(=O)CSc1cccc(Nc2nc(N)c(C(=O)c3c(Cl)cccc3Cl)s2)c1 [Y(3), 2-{3-[4-Amino-5-(2,6-dichloro-benzoyl)-thiazol-2-ylamino]-phenylthio) acetamide]
